Reference: PMC8286840, “Identifying SARS-CoV-2 antiviral compounds by screening for small molecule inhibitors of Nsp3 papain-like protease” (Biochemical Journal, 2021)
Where a name gives a salt, the structure may show the parent alone. Read-outs that look alike come from different tables or passages of the source. Where a SMILES comes first, the peptide text is derived from it. [ ]: non-standard residue; d: D form. Dolaproine = CO[C@@H]([C@@H]1CCCN1)[C@@H](C)C(=O)O; Dil = CC[C@H](C)[C@H](NC)[C@@H](CC(=O)O)OC; NMeV = CN[C@H](C(=O)O)C(C)C

Columns and labels:
[1] = target: T1, SARS-CoV-2 PLpro (nsp3 1564–1878) (Severe acute respiratory syndrome coronavirus 2, UniProt P0DTD1); experiment: biochemical; set-up: FRET-quenched peptide (Pro3) cleavage by PLpro, 10 min pre-incubation, slope over 20 min, normalised to no-compound control; settings: high concentration screen, read-out: % of control remaining
[2] = target: T1, SARS-CoV-2 PLpro (nsp3 1564–1878); experiment: biochemical; set-up: FRET-quenched peptide (Pro3) cleavage by PLpro, 10 min pre-incubation, slope over 20 min, normalised to no-compound control; settings: low concentration screen, read-out: % of control remaining

Work on `CC(CC(=O)O)CC(=O)O` [3-Methylglutaric acid] yielded a remaining activity at 3.75 µM ([1]; Well no.=6835) of 99.3% and a remaining activity at 1.25 µM ([2]; Well no.=6835) of 100%.

In the case of `CN(c1ncccc1CNc1nc(Nc2ccc3c(c2)CC(=O)N3)ncc1C(F)(F)F)S(C)(=O)=O` [PF-562271], the remaining activity at 3.75 µM ([1]; Well no.=2699) is reported as 100% and the remaining activity at 1.25 µM ([2]; Well no.=2699) is reported as 97.1%.

Compound `O=S(=O)(O)Oc1ccc(C(c2ccc(OS(=O)(=O)O)cc2)c2ccccn2)cc1` [Sodium Picosulfate] has a remaining activity at 3.75 µM ([1]; Well no.=4654) of 99.8% and a remaining activity at 1.25 µM ([2]; Well no.=4654) of 103%.

`CCNC(=O)CCC/C=C\C[C@@H]1[C@@H](/C=C/[C@@H](O)CCc2ccccc2)[C@H](O)C[C@@H]1O` [Bimatoprost] showed a remaining activity at 3.75 µM ([1]; Well no.=5237) of 101% and a remaining activity at 1.25 µM ([2]; Well no.=5237) of 100%.

`C=CC1=C(C)/C(=C/c2[nH]c(Cc3[nH]c(/C=C4\NC(=O)C(C)=C4C=C)c(C)c3CCC(=O)O)c(CCC(=O)O)c2C)NC1=O` [Bilirubin] showed a remaining activity at 3.75 µM ([1]; Well no.=7013) of 104% and a remaining activity at 1.25 µM ([2]; Well no.=7013) of 103%.

With `Oc1cc(O)c2c(c1)O[C@H](c1ccc(O)c(O)c1)[C@H](O)C2` [(-)-Epicatechin] the remaining activity at 3.75 µM ([1]; Well no.=3348) was 98.5% and the remaining activity at 1.25 µM ([2]; Well no.=3348) was 96.9%.

`CCNC(=O)c1noc(-c2cc(Cl)c(O)cc2O)c1-c1ccc(OC)cc1` [VER-50589] showed a remaining activity at 3.75 µM ([1]; Well no.=8670) of 97.5% and a remaining activity at 1.25 µM ([2]; Well no.=8670) of 95.3%.

For `C[C@@H]1O[C@@H](Oc2c(-c3cc(O)c(O)c(O)c3)oc3cc(O)cc(O)c3c2=O)[C@H](O)[C@H](O)[C@H]1O` [Myricitrin], the remaining activity at 3.75 µM ([1]; Well no.=3343) was 97.9% and the remaining activity at 1.25 µM ([2]; Well no.=3343) was 95.5%.

In the case of `CN[C@@H]1[C@H](O[C@H]2[C@H](O[C@H]3[C@H](O)[C@@H](O)[C@H](N=C(N)N)[C@@H](O)[C@@H]3N=C(N)N)O[C@@H](C)[C@]2(O)C=O)O[C@@H](CO)[C@H](O)[C@H]1O` [Streptomycin], the remaining activity at 3.75 µM ([1]; Well no.=2285) is reported as 97.7% and the remaining activity at 1.25 µM ([2]; Well no.=2285) is reported as 97.7%.

`CCCCC[C@H](O)/C=C/[C@H]1[C@H](O)CC(=O)[C@@H]1CCCCCCC(=O)O` [Prostaglandin E1] gave a remaining activity at 3.75 µM ([1]; Well no.=2192) of 91.2%, a remaining activity at 3.75 µM ([1]; Well no.=3090) of 97% and a remaining activity at 3.75 µM ([1]; Well no.=4473) of 101%. For the same compound, the remaining activity at 3.75 µM ([1]; Well no.=4475) was 94.7%, the remaining activity at 3.75 µM ([1]; Well no.=8109) was 95% and the remaining activity at 1.25 µM ([2]; Well no.=2192) was 92.3%. For the same compound, the remaining activity at 1.25 µM ([2]; Well no.=3090) was 95.3%, the remaining activity at 1.25 µM ([2]; Well no.=4473) was 103% and the remaining activity at 1.25 µM ([2]; Well no.=4475) was 93.1%. For the same compound, the remaining activity at 1.25 µM ([2]; Well no.=8109) was 91.2%.

With `COc1cc(C(C)=O)ccc1OCCCN1CCC(c2noc3cc(F)ccc23)CC1` [Iloperidone] the remaining activity at 3.75 µM ([1]; Well no.=7333) was 91.9% and the remaining activity at 1.25 µM ([2]; Well no.=7333) was 102%.

`CCCCCCCCCCCC(=O)O` [Dodecanoic acid] was tested, and the remaining activity at 3.75 µM ([1]; Well no.=4256) was 94.8% and the remaining activity at 1.25 µM ([2]; Well no.=4256) was 101%.

`CNCCNS(=O)(=O)c1cccc2cnccc12` [H-8 dihydrochloride] was tested, and the remaining activity at 3.75 µM ([1]; Well no.=893) was 99.3% and the remaining activity at 1.25 µM ([2]; Well no.=893) was 103%.

Work on `CNC(=O)c1ccc(C)c(-n2c(C)cc(OCc3ccc(F)cc3F)c(Br)c2=O)c1` [PH-797804] yielded a remaining activity at 3.75 µM ([1]; Well no.=4695) of 104% and a remaining activity at 1.25 µM ([2]; Well no.=4695) of 104%.

`CC(COc1ccc(/C=C/c2ccccc2)cc1)[N+](C)(C)C` (stereo not drawn) [N,N,N-trimethyl-1-(4-trans-stilbenoxy)-2-propylammonium iodide] showed a remaining activity at 3.75 µM ([1]; Well no.=1531) of 99.7% and a remaining activity at 1.25 µM ([2]; Well no.=1531) of 98.1%.

Compound `O=S(=O)(c1cccc2c(I)cccc12)N1CCCNCC1` [ML-7, Hydrochloride] has a remaining activity at 3.75 µM ([1]; Well no.=2491) of 103% and a remaining activity at 1.25 µM ([2]; Well no.=2491) of 103%.

`CCCCCCCCCCCCCC/C(C(=O)O)=C(\C)C(=O)O` [Chaetomellic acid A] showed a remaining activity at 3.75 µM ([1]; Well no.=3141) of 96% and a remaining activity at 1.25 µM ([2]; Well no.=3141) of 95.8%.

`CC1(C)S[C@@H]2[C@H](NC(=O)[C@H](N)c3ccccc3)C(=O)N2[C@H]1C(=O)O` [Ampicillin] was tested, and the remaining activity at 3.75 µM ([1]; Well no.=2123) was 97.3% and the remaining activity at 1.25 µM ([2]; Well no.=2123) was 97.8%.

`CCCn1cnc2c1c(=O)n(CCCCC(C)=O)c(=O)n2C` [Propentofylline] gave a remaining activity at 3.75 µM ([1]; Well no.=1403) of 94% and a remaining activity at 1.25 µM ([2]; Well no.=1403) of 95.1%.

With `CC1CS(=O)(=O)CCN1/N=C/c1ccc([N+](=O)[O-])o1` (centres unmarked) [Nifurtimox] the remaining activity at 3.75 µM ([1]; Well no.=5382) was 99.2% and the remaining activity at 1.25 µM ([2]; Well no.=5382) was 98.3%.

`CN1[C@H]2C[C@H](OC(=O)[C@H](CO)c3ccccc3)C[C@@H]1[C@@H](O)C2` [Anisodamine] was tested, and the remaining activity at 3.75 µM ([1]; Well no.=3474) was 92.3% and the remaining activity at 1.25 µM ([2]; Well no.=3474) was 96.3%.

`O=c1[nH]ccc2c(O)cccc12` [1,5-Isoquinolinediol] gave a remaining activity at 3.75 µM ([1]; Well no.=827) of 99.5% and a remaining activity at 1.25 µM ([2]; Well no.=827) of 97.8%.

In the case of `CC1=C(CC(=O)O)c2cc(F)ccc2/C1=C\c1ccc(S(C)(=O)=O)cc1` [Sulindac sulfone], the remaining activity at 3.75 µM ([1]; Well no.=1500) is reported as 96.6% and the remaining activity at 1.25 µM ([2]; Well no.=1500) is reported as 95.3%.

`Cc1cccc(Nc2nc(-c3ccncc3)cs2)c1` [STF-62247] gave a remaining activity at 3.75 µM ([1]; Well no.=4615) of 106% and a remaining activity at 1.25 µM ([2]; Well no.=4615) of 102%.

`O=C1NC(=O)/C(=C/c2ccc3nccnc3c2)S1` [PI 3-Kg Inhibitor] showed a remaining activity at 3.75 µM ([1]; Well no.=2515) of 106% and a remaining activity at 1.25 µM ([2]; Well no.=2515) of 99.9%.

`O=C1Cc2cc(CCN3CCN(c4nsc5ccccc45)CC3)c(Cl)cc2N1` [Ziprasidone HCl] gave a remaining activity at 3.75 µM ([1]; Well no.=4859) of 93.7% and a remaining activity at 1.25 µM ([2]; Well no.=4859) of 92.1%.

For `COc1cc(/C=C/C(=O)c2ccc(O)cc2O)ccc1O` [Homobutein], the remaining activity at 3.75 µM ([1]; Well no.=3637) was 102% and the remaining activity at 1.25 µM ([2]; Well no.=3637) was 99.6%.

For `CCNCc1nc2c(N)nc3ccccc3c2n1CC(C)(C)O` [Gardiquimod trifluoroacetate], the remaining activity at 3.75 µM ([1]; Well no.=8131) was 103% and the remaining activity at 1.25 µM ([2]; Well no.=8131) was 105%.

With `COc1c(C)cnc(Cn2cnc3c(Cl)nc(N)nc32)c1C` [BIIB021] the remaining activity at 3.75 µM ([1]; Well no.=5091) was 107% and the remaining activity at 1.25 µM ([2]; Well no.=5091) was 104%.

Work on `C[C@H]1C[C@H]2[C@@H]3CCC4=CC(=O)C=C[C@]4(C)[C@@]3(Cl)[C@@H](O)C[C@]2(C)[C@@]1(O)C(=O)CO` [Beclomethasone] yielded a remaining activity at 3.75 µM ([1]; Well no.=356) of 100% and a remaining activity at 1.25 µM ([2]; Well no.=356) of 95.3%.

`CC[C@H](C)[C@@H]([C@@H](CC(=O)N1CCC[C@H]1[C@H](OC)[C@@H](C)C(=O)N[C@@H](Cc1ccccc1)C(=O)OC)OC)N(C)C(=O)[C@@H](NC(=O)[C@@H](NC)C(C)C)C(C)C` [MMAF-OMe] (H-[NMeV]V[Dil][Dolaproine]F-OMe) was tested, and the remaining activity at 3.75 µM ([1]; Well no.=7600) was 97.1% and the remaining activity at 1.25 µM ([2]; Well no.=7600) was 101%.

Compound `COc1cc(CC(C)N)c(OC)cc1I` (racemic) has a remaining activity at 3.75 µM ([1]; Well no.=686) of 92.3% and a remaining activity at 1.25 µM ([2]; Well no.=686) of 94.3%.

`COc1cc2c(cc1OC)CC(=O)N(CCCN(C)C[C@H]1Cc3cc(OC)c(OC)cc31)CC2` [Ivabradine hydrochloride] showed a remaining activity at 3.75 µM ([1]; Well no.=5419) of 106% and a remaining activity at 1.25 µM ([2]; Well no.=5419) of 104%.
